pIC50, pKd: −log10 of the molar value. Calls of active or inactive are those of the source. The calls are words filed in the database; no cut-off is given here.
Columns and labels:
[1] = Metabolic stability in dog hepatocyte assessed as M1 metabolite formation at 1 uM and measured upto 15 mins in presence of NADPH regenerating system by LC-MS/MS analysis; assay type: ADME, cell-based, Canis lupus familiaris; conditions: hepatocytes, 0.25 h
[2] = biological target: C-X-C chemokine receptor type 3 (Canis lupus familiaris, UniProt Q5KSK8); test: Antagonist activity at dog CXCR3 expressed in CHO-K1 cells assessed as reduction in CXCL10 induced calcium flux by FLIPR method; assay type: cell-based
[3] = In vivo inhibition of hERG in iv dosed dog assessed as change in PR interval; assay type: toxicity, organism-based, Canis lupus familiaris
[4] = biological target: C3a anaphylatoxin chemotactic receptor (Homo sapiens) (UniProt Q16581); test: Binding affinity to C3aR1 (unknown origin) at 10 uM by radioligand binding assay
[5] = biological target: T1, C-X-C chemokine receptor type 3 (Homo sapiens) (UniProt P49682); test: Binding affinity to human CXCR3 expressed in CHO-K1 cell membrane assessed as […] (Kon) using tritium-labeled ligand by […] assay; assay type: cell membranes; conditions: filed as antagonist
T1 sequence (whole entry): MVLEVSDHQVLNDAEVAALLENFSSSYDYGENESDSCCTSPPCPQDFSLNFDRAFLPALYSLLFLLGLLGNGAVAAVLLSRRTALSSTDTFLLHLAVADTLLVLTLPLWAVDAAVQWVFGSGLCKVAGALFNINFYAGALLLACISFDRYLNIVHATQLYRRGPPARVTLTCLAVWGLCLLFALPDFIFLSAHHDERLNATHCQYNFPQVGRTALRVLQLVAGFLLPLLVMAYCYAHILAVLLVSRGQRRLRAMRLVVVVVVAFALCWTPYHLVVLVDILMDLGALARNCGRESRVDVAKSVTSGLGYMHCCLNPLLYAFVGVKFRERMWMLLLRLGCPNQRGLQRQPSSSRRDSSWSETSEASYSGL

[6] = Cmax in Cynomolgus monkey at 1.0 mg/kg,iv or 1.25 mg/kg, po; assay type: ADME, organism-based, Macaca fascicularis; parameters: dose 1 mg/kg, route iv; conditions: in vivo
[7] = biological target: C-C chemokine receptor type 7 (Homo sapiens) (UniProt P32248); test: Binding affinity to CCR7 (unknown origin) at 10 uM by radioligand binding assay
[8] = Protein binding in human plasma assessed as fraction unbound at 1 uM incubated for 6 hrs by rapid equilibrium dialysis based LC-MS/MS analysis; assay type: ADME, cell-free
[9] = Metabolic stability in human hepatocyte assessed as M1 metabolite formation at 1 uM and measured upto 15 mins in presence of NADPH regenerating system by LC-MS/MS analysis; assay type: ADME, cell-based; conditions: hepatocytes, 0.25 h
[10] = Cmax in LPS-induced DBA/1 mouse plasma at 0.06 microg/g, po bid preincubated for 3 days followed by LPS stimulation for 30 mins and measured after 72 hrs by flow cytometry; assay type: ADME, organism-based; parameters: time 6 day, dose 0.06 µg/g, route po; conditions: 0.06 µg/g
[11] = Cmin in LPS-induced DBA/1 mouse plasma at 0.02 microg/g, po bid preincubated for 3 days followed by LPS stimulation for 30 mins and measured after 72 hrs by flow cytometry; assay type: ADME, organism-based; conditions: dose 0.02 µg/g, time 3 day, read-out: Cmin
[12] = Cmax in LPS-induced DBA/1 mouse plasma at 0.02 microg/g, po bid preincubated for 3 days followed by LPS stimulation for 30 mins and measured after 72 hrs by flow cytometry; assay type: ADME, organism-based; parameters: time 6 day, dose 0.02 µg/g, route po; conditions: 0.02 µg/g
[13] = biological target: Voltage-gated inwardly rectifying potassium channel KCNH2 (Homo sapiens, UniProt Q12809); test: Inhibition of human ERG stably expressed in CHO cells at -80 mV holding voltage by automated QPatch electrophysiological assay; assay type: toxicity, cell-based
[14] = biological target: T2, C-X-C chemokine receptor type 3 (Homo sapiens, UniProt P49682); test: Antagonist activity at CXCR3 in human whole blood assessed as receptor internalization incubated for 30 mins in presence of CXCL10 by flow cytometric analysis; assay type: tissue-based
T2 sequence (P49682 whole entry): T1 sequence (whole entry)

[15] = biological target: fMet-Leu-Phe receptor (Homo sapiens) (UniProt P21462); test: Binding affinity to FPR1 (unknown origin) at 10 uM by radioligand binding assay
[16] = biological target: T3, C-X-C chemokine receptor type 3 (Mus musculus, UniProt O88410); test: Antagonist activity at mouse CXCR3 expressed in CHO-K1 cells assessed as reduction in CXCL11 induced calcium flux by FLIPR method; assay type: cell-based
T3 sequence (O88410 whole entry): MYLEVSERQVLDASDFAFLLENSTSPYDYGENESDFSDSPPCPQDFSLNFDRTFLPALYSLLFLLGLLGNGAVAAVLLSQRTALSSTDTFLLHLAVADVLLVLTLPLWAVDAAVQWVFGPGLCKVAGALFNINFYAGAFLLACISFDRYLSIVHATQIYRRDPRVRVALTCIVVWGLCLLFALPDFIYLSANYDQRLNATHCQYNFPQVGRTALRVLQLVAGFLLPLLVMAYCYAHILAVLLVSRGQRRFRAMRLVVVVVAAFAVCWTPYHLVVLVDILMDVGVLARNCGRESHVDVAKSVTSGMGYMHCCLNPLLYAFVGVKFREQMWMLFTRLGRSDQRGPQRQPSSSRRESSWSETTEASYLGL

[17] = Metabolic stability in rat liver microsomes assessed as intrinsic clearance at 1 uM and measured upto 15 mins in presence of NADPH regenerating system by LC-MS/MS analysis; assay type: ADME, Microsome; conditions: read-out: CLH
[18] = Oral bioavailability in Beagle dog at 2.5 mg/kg; assay type: ADME, organism-based, Canis lupus familiaris; conditions: in vivo
[19] = biological target: T2, C-X-C chemokine receptor type 3; test: Binding affinity to human CXCR3 expressed in CHO-K1 cell membrane assessed as dissociation constant using tritium-labeled ligand by […] assay; assay type: cell membranes
[20] = Metabolic stability in human hepatocyte assessed as M2 metabolite formation at 1 uM and measured upto 15 mins in presence of NADPH regenerating system by LC-MS/MS analysis; assay type: ADME, cell-based; conditions: hepatocytes, 0.25 h
[21] = Clearance in Beagle dog at 2.5 mg/kg,iv or 2.5 mg/kg, po; assay type: ADME, organism-based, Canis lupus familiaris; conditions: in vivo
[22] = Metabolic stability in rat hepatocyte assessed as M2 metabolite formation at 1 uM and measured upto 15 mins in presence of NADPH regenerating system by LC-MS/MS analysis; assay type: ADME, cell-based; conditions: hepatocytes, 0.25 h
[23] = Metabolic stability in dog hepatocyte assessed as M4 metabolite formation at 1 uM and measured upto 15 mins in presence of NADPH regenerating system by LC-MS/MS analysis; assay type: ADME, cell-based, Canis lupus familiaris; conditions: hepatocytes, 0.25 h
[24] = Clearance in Wistar rat at 3 mg/kg,iv or 3 mg/kg, po; assay type: ADME, organism-based; conditions: in vivo
[25] = biological target: T1, C-X-C chemokine receptor type 3 (Homo sapiens); test: Binding affinity to CXCR3 (unknown origin) at 10 uM by radioligand binding assay; conditions: filed as antagonist
Cytochrome P450 2C9 = Cytochrome P450 2C9 (Homo sapiens, UniProt P11712); test: Competitive inhibition of CYP2C9 (unknown origin); assay type: ADME
[26] = Protein binding in rat plasma assessed as fraction unbound at 20 ug/ml using 14C-labeled ligand by rapid equilibrium dialysis; assay type: ADME, cell-free; conditions: at 20 µg/mL

Chain of C-X-C chemokine receptor type 3 (Canis lupus familiaris, UniProt Q5KSK8) (Q5KSK8 whole entry): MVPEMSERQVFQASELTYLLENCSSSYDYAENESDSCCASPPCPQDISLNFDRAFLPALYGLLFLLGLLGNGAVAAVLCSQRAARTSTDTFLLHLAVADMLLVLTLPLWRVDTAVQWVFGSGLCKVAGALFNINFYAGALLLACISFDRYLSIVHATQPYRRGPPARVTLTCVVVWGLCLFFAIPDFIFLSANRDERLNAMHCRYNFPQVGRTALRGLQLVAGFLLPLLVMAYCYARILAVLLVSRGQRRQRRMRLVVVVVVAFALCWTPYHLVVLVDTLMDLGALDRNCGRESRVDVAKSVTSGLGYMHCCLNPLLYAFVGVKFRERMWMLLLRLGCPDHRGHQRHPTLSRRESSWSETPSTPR
Chain of Voltage-gated inwardly rectifying potassium channel KCNH2 (Q12809 whole entry): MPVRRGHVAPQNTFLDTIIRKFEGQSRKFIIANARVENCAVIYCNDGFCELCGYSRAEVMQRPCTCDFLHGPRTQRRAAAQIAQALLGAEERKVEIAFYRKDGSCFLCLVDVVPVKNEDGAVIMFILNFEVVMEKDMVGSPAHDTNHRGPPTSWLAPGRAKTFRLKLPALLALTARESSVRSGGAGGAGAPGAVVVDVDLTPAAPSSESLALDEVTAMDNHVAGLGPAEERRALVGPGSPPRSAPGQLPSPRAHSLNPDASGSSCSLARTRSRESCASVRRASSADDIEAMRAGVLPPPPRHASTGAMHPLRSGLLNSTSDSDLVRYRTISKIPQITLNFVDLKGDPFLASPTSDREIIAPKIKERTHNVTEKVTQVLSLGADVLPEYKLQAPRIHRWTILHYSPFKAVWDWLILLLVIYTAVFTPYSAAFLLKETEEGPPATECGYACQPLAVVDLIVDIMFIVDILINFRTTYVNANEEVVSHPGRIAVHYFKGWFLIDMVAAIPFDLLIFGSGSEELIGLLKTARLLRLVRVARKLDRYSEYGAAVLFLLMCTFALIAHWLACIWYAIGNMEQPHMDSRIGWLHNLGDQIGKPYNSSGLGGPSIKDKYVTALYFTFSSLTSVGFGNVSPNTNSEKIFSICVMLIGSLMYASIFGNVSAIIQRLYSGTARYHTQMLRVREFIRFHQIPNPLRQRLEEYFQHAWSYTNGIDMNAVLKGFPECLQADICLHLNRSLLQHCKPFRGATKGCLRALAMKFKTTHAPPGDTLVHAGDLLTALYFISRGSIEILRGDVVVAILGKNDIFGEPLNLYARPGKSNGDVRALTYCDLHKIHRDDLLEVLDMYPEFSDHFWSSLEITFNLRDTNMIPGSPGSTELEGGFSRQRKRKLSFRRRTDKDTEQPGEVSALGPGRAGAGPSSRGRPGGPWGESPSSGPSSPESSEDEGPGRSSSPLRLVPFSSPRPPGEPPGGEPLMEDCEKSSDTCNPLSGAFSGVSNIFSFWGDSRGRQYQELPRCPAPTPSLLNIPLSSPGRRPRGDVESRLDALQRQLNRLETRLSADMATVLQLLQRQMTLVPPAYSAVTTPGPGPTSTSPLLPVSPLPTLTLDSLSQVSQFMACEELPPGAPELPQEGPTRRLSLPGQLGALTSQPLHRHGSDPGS
Chain of Cytochrome P450 2C9 (P11712 whole entry): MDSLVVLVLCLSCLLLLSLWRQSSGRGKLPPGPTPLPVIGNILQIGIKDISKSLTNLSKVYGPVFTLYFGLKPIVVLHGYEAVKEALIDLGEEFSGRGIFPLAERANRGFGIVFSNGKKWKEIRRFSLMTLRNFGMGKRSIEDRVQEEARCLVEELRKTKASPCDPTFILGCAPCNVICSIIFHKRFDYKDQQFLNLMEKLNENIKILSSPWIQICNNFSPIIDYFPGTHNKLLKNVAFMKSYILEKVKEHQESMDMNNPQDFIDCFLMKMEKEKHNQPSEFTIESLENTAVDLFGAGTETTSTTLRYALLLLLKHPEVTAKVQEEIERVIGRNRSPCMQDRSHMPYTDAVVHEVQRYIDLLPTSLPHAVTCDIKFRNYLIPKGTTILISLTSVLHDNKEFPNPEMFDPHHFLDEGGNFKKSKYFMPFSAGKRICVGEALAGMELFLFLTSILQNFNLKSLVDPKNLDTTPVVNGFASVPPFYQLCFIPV
Chain of C3a anaphylatoxin chemotactic receptor (Homo sapiens) (Q16581 whole entry): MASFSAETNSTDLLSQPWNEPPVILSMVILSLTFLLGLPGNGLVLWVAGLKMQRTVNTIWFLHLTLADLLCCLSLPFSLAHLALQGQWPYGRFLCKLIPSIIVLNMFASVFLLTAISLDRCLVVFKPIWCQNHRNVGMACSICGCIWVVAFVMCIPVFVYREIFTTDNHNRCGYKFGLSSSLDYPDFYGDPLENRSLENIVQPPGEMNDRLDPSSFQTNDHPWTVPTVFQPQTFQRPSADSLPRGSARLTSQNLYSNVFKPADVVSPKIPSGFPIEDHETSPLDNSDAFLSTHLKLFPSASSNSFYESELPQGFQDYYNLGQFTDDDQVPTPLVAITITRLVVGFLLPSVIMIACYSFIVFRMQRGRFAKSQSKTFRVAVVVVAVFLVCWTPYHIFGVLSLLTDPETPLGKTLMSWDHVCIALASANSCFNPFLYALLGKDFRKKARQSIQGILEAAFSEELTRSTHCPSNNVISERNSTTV
Chain of fMet-Leu-Phe receptor (Homo sapiens) (P21462 whole entry): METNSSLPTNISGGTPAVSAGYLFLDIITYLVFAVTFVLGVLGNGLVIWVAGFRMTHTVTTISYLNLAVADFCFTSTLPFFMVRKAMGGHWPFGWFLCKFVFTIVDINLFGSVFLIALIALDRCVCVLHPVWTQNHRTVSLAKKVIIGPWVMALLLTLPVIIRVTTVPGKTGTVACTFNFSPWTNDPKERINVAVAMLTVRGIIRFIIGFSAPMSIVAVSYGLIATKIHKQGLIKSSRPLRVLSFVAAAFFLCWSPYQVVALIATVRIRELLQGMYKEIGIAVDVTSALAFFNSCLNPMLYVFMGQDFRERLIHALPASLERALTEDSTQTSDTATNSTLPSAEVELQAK
Chain of C-C chemokine receptor type 7 (Homo sapiens) (P32248 whole entry): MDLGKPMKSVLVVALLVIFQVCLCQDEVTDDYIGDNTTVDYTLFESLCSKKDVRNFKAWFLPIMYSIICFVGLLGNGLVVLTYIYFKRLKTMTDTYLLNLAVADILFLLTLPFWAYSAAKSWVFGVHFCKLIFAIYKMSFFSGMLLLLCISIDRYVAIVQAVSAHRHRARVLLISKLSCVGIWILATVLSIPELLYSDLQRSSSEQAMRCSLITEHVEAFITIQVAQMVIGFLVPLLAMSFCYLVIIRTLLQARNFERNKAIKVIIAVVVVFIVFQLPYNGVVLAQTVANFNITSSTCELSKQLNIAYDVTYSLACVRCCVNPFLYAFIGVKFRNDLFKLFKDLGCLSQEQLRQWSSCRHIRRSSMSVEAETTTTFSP

Cc1ncn(CC(=O)N2CCN(c3sc(C(F)(F)F)nc3-c3cnc(C(F)(F)F)nc3)C[C@H]2CCO)n1
Stability [1]: Unstable | pIC50 [2]: 8.55 | inhibition (INH) [3]: Non-Toxic | Activity [4]: inactive | ka [5]: 6.6 10^6/M/s | Cmax [6]: 735 ng/mL | Activity [7]: inactive | fraction unbound at 6 h, 1 µM [8]: 0.23 | Stability [9]: Unstable | Cmax [10]: 559 ng/mL | concentration at 72 h [11]: 99 ng/mL | Cmax [12]: 173 ng/mL | pIC50 [13]: 4.59 | pIC50 [14]: 7.25 | Activity [15]: inactive | pIC50 [16]: 8.36 | microsomal CLint at 1 µM [17]: < 10 µL/min/mg | bioavailability [18]: 89% | pKd [19]: 8.34 | Stability [20]: Unstable | clearance [21]: 9.5 mL/min/kg | Stability [22]: Unstable | Stability [23]: Unstable | clearance [24]: 9.5 mL/min/kg | Activity [25]: Active | pIC50 (Cytochrome P450 2C9): < 4.30 | fraction unbound at 20 ug/ml [26]: 0.12

Source: ChEMBL document CHEMBL5247653, “Discovery of Clinical Candidate ACT-777991, a Potent CXCR3 Antagonist for Antigen-Driven and Inflammatory Pathologies” (J Med Chem, 2023)
